In PubChem BioAssay (NCI):
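Where inhibition never reached the appropriate level, the endpoint shown equals the highest concentration tested. Otherwise, values were interpolated linearly from a five-concentration, 48-hour dose response in 96-well plates. TGI: total growth inhibition.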

Legend:
Assay in all cases: inhibition of tumour cell growth, NCI panel, 48 h
[1] = system: HS 578T breast
[2] = system: K-562 leukemia
[3] = system: SR leukemia
[4] = system: SNB-19 CNS
[5] = system: UACC-257 melanoma
[6] = system: SF-295 CNS
[7] = system: EKVX NSCLC
[8] = system: MDA-MB-435
[9] = system: OVCAR-3 ovarian
[10] = system: HCC-2998 colon
[11] = system: CAKI-1 renal
[12] = system: NCI-H522 lung
[13] = system: TK-10 renal
[14] = system: KM12 colon
[15] = system: 786-0 renal
[16] = system: COLO 205 colon
[17] = system: SW-620 colon
[18] = system: A549 NSCLC
[19] = system: UACC-62 melanoma
[20] = system: DMS 273 small cell lung

Compound	TGI [1]	TGI [2]	TGI [3]	TGI [4]	TGI [5]	TGI [6]	TGI [7]	TGI [8]	TGI [9]	TGI [10]	TGI [11]	TGI [12]	TGI [13]	TGI [14]	TGI [15]	TGI [16]	TGI [17]	TGI [18]	TGI [19]	TGI [20]
CC(=O)OC12c3ccccc3-c3ccccc3C1C(C(=O)O)C2(Cl)C(=O)O (stereo not drawn)	> 10 µM	> 10 µM	> 10 µM	> 10 µM	> 10 µM	> 10 µM	> 10 µM	> 10 µM	> 10 µM	> 10 µM	> 10 µM	> 10 µM	> 10 µM	> 10 µM	> 10 µM	> 10 µM	> 10 µM			
O=[N+]1ON=C(c2ccccc2)C1=C1C(c2c(-c3ccccc3)no[n+]2[O-])=NON1[O-]	> 100 µM	10.6 µM	> 100 µM	> 100 µM	67.3 µM	> 100 µM	> 100 µM	6.56 µM	30.6 µM	> 100 µM	56.7 µM	> 100 µM	> 100 µM	> 100 µM	31.2 µM	25.4 µM	> 100 µM	> 100 µM	51.2 µM	
NC(=O)C(=CNC(=S)Nc1ccc(Cl)c(Cl)c1)C(N)=O	> 88.9 µM	> 100 µM	> 100 µM	> 100 µM	> 100 µM	> 100 µM	> 100 µM	> 100 µM	> 100 µM	> 100 µM	> 100 µM	72.3 µM	> 100 µM	> 100 µM	> 100 µM	> 100 µM	> 100 µM	> 100 µM	> 100 µM	
CCOC(=O)CSc1nnc(CSc2nc(-c3ccccc3)c(-c3ccccc3)[nH]2)n1-c1ccccc1		> 100 µM	> 100 µM	> 100 µM	> 67.4 µM	> 100 µM	> 100 µM		> 100 µM	37.1 µM		> 100 µM	31.9 µM	> 100 µM	> 62.9 µM	> 100 µM	> 100 µM	> 100 µM	71.6 µM	> 100 µM
CCOC(=O)NC(C(=O)OCC)(N1CCN(c2cc3c(cc2F)c(=O)c(C(=O)O)cn3CC)CC1)C(F)(F)F (stereo not drawn)	> 100 µM	> 100 µM	> 100 µM	> 100 µM	> 100 µM	> 100 µM	56.9 µM	> 100 µM	> 100 µM	> 100 µM	> 100 µM	> 100 µM	> 100 µM	> 100 µM	> 100 µM	> 100 µM	> 100 µM	> 100 µM	> 100 µM	
Cn1cc(S(=O)(=O)NC(=O)Nc2ccc(Cl)cc2)c2ccccc21	> 100 µM	> 100 µM	> 100 µM	> 100 µM	> 100 µM	> 100 µM	> 100 µM	> 100 µM	> 100 µM	> 100 µM	81 µM	69.3 µM	55.2 µM	> 100 µM	> 100 µM	> 100 µM	> 100 µM	> 100 µM	79.9 µM	
Cc1cc(=O)[nH]c2cc(NC(=O)C(CCCN=C(N)N)NC(=O)OCc3ccccc3)ccc12 (stereo not drawn)	> 100 µM	> 100 µM	> 100 µM	> 100 µM	> 100 µM	> 100 µM	> 100 µM	> 100 µM	> 100 µM	> 100 µM	> 100 µM	> 100 µM	> 100 µM	> 100 µM	> 100 µM	> 100 µM	> 100 µM	> 100 µM	> 100 µM	
C[N+](C)(C)/N=C/c1ccc(O)c(O)c1	> 100 µM	> 100 µM	> 100 µM	> 100 µM	> 100 µM	> 100 µM	> 100 µM	> 100 µM	> 100 µM	> 100 µM	> 100 µM	> 100 µM	> 100 µM	> 100 µM	> 100 µM	> 100 µM	> 100 µM	> 100 µM	> 100 µM	
COc1cccc(C2ON=C(c3ccccc3)N2C23CC4CC(CC(C4)C2)C3)c1 (stereo not drawn)	> 10 µM	> 10 µM	> 10 µM	> 10 µM	> 10 µM	> 10 µM	> 10 µM	> 10 µM	> 10 µM	> 10 µM	> 10 µM	> 10 µM	> 10 µM	> 10 µM	> 10 µM	> 10 µM	> 10 µM	> 10 µM	> 10 µM	
O=C(Nc1nc(C23CC4CC(CC(C4)C2)C3)cs1)c1cc2cc(Cl)ccc2oc1=O	> 100 µM	> 100 µM	> 100 µM	> 100 µM	> 100 µM	> 100 µM	> 100 µM	> 100 µM	> 100 µM	> 100 µM	> 100 µM	> 100 µM	> 100 µM	> 100 µM	> 100 µM	> 100 µM	> 100 µM	> 100 µM		
O=C(NNCC(F)(F)F)c1ccncc1	> 100 µM	> 100 µM	> 100 µM	> 100 µM	> 100 µM	> 100 µM	> 100 µM	> 100 µM	> 100 µM	> 100 µM	> 100 µM	> 100 µM	> 100 µM	> 100 µM	> 100 µM	> 100 µM	> 100 µM	> 100 µM	> 100 µM	
Cc1cc(S(=O)(=O)NC2=NC(c3ccccc3)c3cc(Cl)ccc3N2)c(S)cc1Cl (stereo not drawn)	> 100 µM	> 100 µM	> 100 µM	> 100 µM	> 100 µM	> 100 µM	> 100 µM	> 100 µM	> 100 µM	> 100 µM	> 100 µM	> 100 µM	> 100 µM	> 100 µM	> 100 µM	> 100 µM	> 100 µM	> 100 µM	> 100 µM	
